Source: US8338472B2, “Hexahydrocyclopentyl[F]indazole carboxamides and derivatives thereof as selective glucocorticoid receptor modulators” (Merck Sharp & Dohme Corp., priority 2008, dated 2012)
Read-outs that look alike come from different tables or passages of the source.

Legend:
Glucocorticoid Receptor = molecular target: T1, Glucocorticoid Receptor (Homo sapiens, UniProt P04150); experiment: Trans-Activation Modulation of Glucocorticoid Receptor (GRAMMER), MMTV-LUC reporter gene in A549 cells; assay type: cell-based; details: Table 1; for Emax: A549, A549 cells, Emax relative to 300 nM dexamethasone, read-out: Transactivation A549 Cells GRAMMER Emax; for EC50: inflection point, A549 cells, read-out: Transactivation A549 Cells GRAMMER IP
T1 construct: These cells express large amount of the GR and are very responsive to GC treatment; endogenous in cells; host or cells: A549 cells transiently transfected with the MMTV-LUC reporter
T1 sequence (P04150 1-777): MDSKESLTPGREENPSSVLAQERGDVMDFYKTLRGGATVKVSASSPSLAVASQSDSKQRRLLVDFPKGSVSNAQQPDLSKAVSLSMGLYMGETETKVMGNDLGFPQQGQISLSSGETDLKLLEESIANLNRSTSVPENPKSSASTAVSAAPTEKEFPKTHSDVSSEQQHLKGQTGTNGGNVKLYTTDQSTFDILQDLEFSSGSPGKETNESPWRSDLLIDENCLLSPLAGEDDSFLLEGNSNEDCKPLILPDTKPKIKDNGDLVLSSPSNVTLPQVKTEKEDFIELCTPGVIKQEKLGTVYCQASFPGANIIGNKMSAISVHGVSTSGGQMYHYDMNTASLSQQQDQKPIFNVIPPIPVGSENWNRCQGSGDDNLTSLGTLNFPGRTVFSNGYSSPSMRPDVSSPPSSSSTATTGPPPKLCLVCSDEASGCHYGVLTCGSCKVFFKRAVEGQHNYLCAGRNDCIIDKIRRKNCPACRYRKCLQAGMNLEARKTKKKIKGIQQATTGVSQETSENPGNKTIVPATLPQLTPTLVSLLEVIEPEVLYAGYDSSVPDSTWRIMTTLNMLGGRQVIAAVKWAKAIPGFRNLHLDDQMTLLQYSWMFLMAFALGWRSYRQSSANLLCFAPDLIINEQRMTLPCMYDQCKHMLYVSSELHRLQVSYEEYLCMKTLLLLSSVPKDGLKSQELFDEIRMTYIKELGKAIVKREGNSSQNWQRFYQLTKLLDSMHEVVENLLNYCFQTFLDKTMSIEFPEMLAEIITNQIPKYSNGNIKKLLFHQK
Method in brief: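 Luciferase from a transiently transfected MMTV-LUC reporter was measured after 24 h compound exposure (≤1% DMSO) in A549 or MDA-MB-453 cells. For antagonism, the decrease of 10 nM dexamethasone-induced signal was calculated. For agonism, Emax was referenced to 300 nM dexamethasone.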

human GR = molecular target: T2, human GR (Homo sapiens, UniProt P04150); experiment: Transrepression Assay (GITAR), TNFα-β-lactamase reporter gene in U937 cells; assay type: cell-based; details: for GITAR Greater than by GRAMMER % SEP: GITAR Emax minus GRAMMER Emax; for EC50: inflection point, U937 cells, read-out: Transrepression U937 Cells GITAR IP
T2 construct: U937 cells contain an endogenous glucocorticoid receptor (GR); endogenous in cells; host or cells: U937 cells stably transfected with the TNF-alpha promoter/beta-lactamase reporter
T2 sequence (P04150 1-777): T1 sequence (P04150 1-777)
Method in brief: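 Repression of PMA (5 ng/ml final)/LPS (100 ng/ml final)-induced TNF-α promoter activity, read as β-lactamase cleavage of CCF2-AM, in stably transfected U937 cells expressing native GR. Compound added 30-45 min before stimulation, overnight (~18 hr) 37° C; normalized to 100 nM dexamethasone (100%).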

[1] = molecular target: T3, glucocorticoid receptor (GR) (Homo sapiens, UniProt P04150); experiment: Ligand binding assay (GR BIND), 3H-dexamethasone displacement in MDA-MB-453 cell lysate; details: GR BIND Ki, Table 1
T3 sequence (P04150 1-777): T1 sequence (P04150 1-777)
Protocol: Binding Buffer: TEGM (10 mM Tris-HCl, 1 mM EDTA, 10% glycerol, 1 mM beta-mecaptoethanol, 10 mM Sodium Molybdate, pH 7.2)
50% HAP Slurry: Calbiochem Hydroxylapatite, Fast Flow, in 10 mM Tris, pH 8.0 and 1 mM EDTA.
Wash Buffer: 40 mM Tris, pH7.5, 100 mM KCl, 1 mM EDTA and 1 mM EGTA.
Dexmethasone-methyl-^3H, (DEX*); (Amersham cat# TRK645)
Dexamethasone(DEX) (Sigma, cat# D1756):
The cell pellet is washed twice with TEGM (10 mM Tris-HCl, 1 mM EDTA, 10% glycerol, 1 mM beta-mercaptoethanol, 10 mM Sodium Molybdate, pH 7.2). After the final wash, the cells are resuspended in TEGM at a concentration of 10^7 cells/mL. The cell suspension is snap frozen in liquid nitrogen or ethanol/dry ice bath and transferred to −80° C. freezer on dry ice. Before setting up the binding assay, the frozen samples are left on ice-water to just thaw (˜1 hr). Then the samples are centrifuged at 12,500 g to 20,000 g for 30 min at 4° C. The supernatant is used to set-up assay right away. If using 50 μL of supernatant, the test compound can be prepared in 50 μL of the TEGM buffer.
Procedure for Multiple Compound Screening
1×TEGM buffer is prepared, and the isotope-containing assay mixture is prepared in the following order: EtOH (2% final concentration in reaction), ^3H-DEX (Amersham Biosciences) and 1×TEGM. [e.g. For 100 samples, 200 μL (100×2) of EtOH+4.25 μL of 1:10 ^3H-Dex stock+2300 μL (100×23) 1×TEGM]. The compound is serially diluted, e.g., if starting final conc. is 1 μM, and the compound is in 25 μL of solution, for duplicate samples, 75 μL of 4×1 μM solution is made and 3 μL of 100 μM is added to 72 μL of buffer, and 1:5 serial dilution.
25 μL of ^3H-DEX (6 nM) trace and 25 μL compound solution are first mixed together, followed by addition of 50 μL receptor solution. The reaction is gently mixed, spun briefly at about 200 rpm and incubated at 4° C. overnight. 100 μL of 50% HAP slurry is prepared and added to the incubated reaction which is then vortexed and incubated on ice for 5 to 10 minutes. The reaction mixture is vortexed twice more to resuspend HAP while incubating reaction. The samples in 96-well format are then washed in wash buffer using The FilterMate™ Universal Harvester plate washer (Packard). The washing process transfers HAP pellet containing ligand-bound expressed receptor to Unifilter-96 GF/B filter plate (Packard). The HAP pellet on the filter plate is incubated with 50 μL of MICROSCINT (Packard) scintillint for 30 minutes before being counted on the TopCount microscintillation counter (Packard). IC50s are calculated using DEX as a reference.

[2] = U-937, U937 cells, activity repressed by 100 nM dexamethasone = 100%, Table 1, read-out: Transrepression U937 Cells GITAR Emax
[3] = U-937, text statement, 100 nM dexamethasone = 100%, read-out: maximal activity in the transrepression assay (GITAR)

Row | Emax (Glucocorticoid Receptor) [%] | EC50 (Glucocorticoid Receptor) [nM] | GITAR Greater than by GRAMMER % SEP (human GR; Table 1) [%] | Emax (human GR; [2]) [%] | Emax (human GR; [3]) [%] | EC50 (human GR; Table 1) [nM] | Ki [1] [nM] | Compound
1 | 2.7 | 3290 | 29.8 | 32.5 | > 5 | 1840 | 39.1 | C[C@]12Cc3cnn(-c4ccc(F)cc4)c3C=C1CC[C@@H]2C(=O)N(CCO)CC(=O)c1coc2ccccc12 [Compound 29, (4αR,5S)-N-[2-(1-benzofuran-3-yl)-2-oxoethyl]-1-(4-fluorophenyl)-N-(2-hydroxyethyl)-4α-methyl-1,4,4α,5,6,7-hexahydrocyclopenta[f]indazole-5-carboxamide]
2 | 4.3 | 1110 | 31.2 | 35.5 | > 5 | 1080 | 12.2 | C[C@]12Cc3cnn(-c4ccc(F)cc4)c3C=C1CC[C@@H]2C(=O)N(CCO)Cc1ccccc1CS(=O)(=O)c1ccccc1 [Compound 30, (4αR,5S)-1-(4-fluorophenyl)-N-(2-hydroxyethyl)-4α-methyl-N-{2-[(phenylsulfonyl)methyl]benzyl}-1,4,4α,5,6,7-hexahydrocyclopenta[f] carboxamide]
3 | 2.6 | 359 | 12.9 | 15.5 | > 5 | 1230 | 7.9 | C[C@]12Cc3cnn(-c4ccc(F)cc4)c3C=C1CC[C@@H]2C(=O)N(CCO)Cc1csc2ccc(Cl)cc12 [Compound 31, (4αR,5S)-N-[(5-chloro-1-benzothien-3-yl)methyl]-1-(4-fluorophenyl)-N-(2-hydroxyethyl)-4α-methyl-1,4,4α,5,6,7-hexahydrocyclopenta[f]indazole-5-carboxamide]
4 | 17.1 | 872 | 47.1 | 64.3 | > 5 | 1030 | 11.1 | C[C@]12Cc3cnn(-c4ccc(F)cc4)c3C=C1CC[C@@H]2C(=O)N(CCO)Cc1cc(F)cc(F)c1 [Compound 32, (4αR,5S)-N-(3,5-difluorobenzyl)-1-(4-fluorophenyl)-N-(2-hydroxyethyl)-4α-methyl-1,4,4α,5,6,7-hexahydrocyclopenta[f]indazole-5-carboxamide]
5 | 12.2 | 901 | 44.1 | 56.3 | > 5 | 1520 | 7.7 | C[C@]12Cc3cnn(-c4ccc(F)cc4)c3C=C1CC[C@@H]2C(=O)N(CCO)Cc1cccc(F)c1 [Compound 33, (4αR,5S)-N-(3-fluorobenzyl)-1-(4-fluorophenyl)-N-(2-hydroxyethyl)-4α-methyl-1,4,4α,5,6,7-hexahydrocyclopenta[f]indazole-5-carboxamide]
6 | 22.2 | 1510 | 44.1 | 66.3 | > 5 | 644 | 12 | COc1cc(CN(CCO)C(=O)[C@H]2CCC3=Cc4c(cnn4-c4ccc(F)cc4)C[C@@]32C)cc(OC)c1 [Compound 34, (4αR,5S)-N-(3,5-dimethoxybenzyl)-1-(4-fluorophenyl)-N-(2-hydroxyethyl)-4α-methyl-1,4,4α,5,6,7-hexahydrocyclopenta[f]indazole-5-carboxamide]
7 | 31.8 | 2650 | 30.8 | 62.6 | > 5 | 945 | 14.7 | C[C@]12Cc3cnn(-c4ccc(F)cc4)c3C=C1CC[C@@H]2C(=O)N(CCO)CCc1ccccc1 [Compound 35, (4αR,5S)-1-(4-fluorophenyl)-N-(2-hydroxyethyl)-4α-methyl-N-(2-phenylethyl)-1,4,4α,5,6,7-hexahydrocyclopenta[f]indazole-5-carboxamide]
8 | 12.5 | 872 | 54.9 | 67.4 | > 5 | 1280 | 11.7 | C[C@]12Cc3cnn(-c4ccc(F)cc4)c3C=C1CC[C@@H]2C(=O)N(CCO)Cc1ccccc1 [Compound 36, (4αR,5S)-N-benzyl-1-(4-fluorophenyl)-N-(2-hydroxyethyl)-4α-methyl-1,4,4α,5,6,7-hexahydrocyclopenta[f]indazole-5-carboxamide]
9 | 5.7 | 2550 | 31.3 | 37 | > 5 | 3420 | 168 | CCCN(CCO)C(=O)[C@H]1CCC2=Cc3c(cnn3-c3ccc(F)cc3)C[C@@]21C [Compound 37, (4αR,5S)-1-(4-fluorophenyl)-N-(2-hydroxyethyl)-4α-methyl-N-propyl-1,4,4α,5,6,7-hexahydrocyclopenta[f]indazole-5-carboxamide]
10 | 37.5 | 660 | 47.3 | 84.7 | > 5 | 739 | 14.6 | CCCCCN(CCO)C(=O)[C@H]1CCC2=Cc3c(cnn3-c3ccc(F)cc3)C[C@@]21C [Compound 38, (4αR,5S)-1-(4-fluorophenyl)-N-(2-hydroxyethyl)-4α-methyl-N-pentyl-1,4,4α,5,6,7-hexahydrocyclopenta[f]indazole-5-carboxamide]
11 | 27 | 535 | 67.4 | 94.3 | > 5 | 125 | 4.4 | CCCCN(CC=O)C(=O)[C@H]1CCC2=Cc3c(cnn3-c3ccc(F)cc3)C[C@@]21C [Compound 39, (4αR,5S)-N-butyl-1-(4-fluorophenyl)-4α-methyl-N-(2-oxoethyl)-1,4,4α,5 ,6,7-hexahydrocyclopenta[f]indazole-5-carboxamide]
12 | 66.4 | 108 | 20.4 | 86.8 | > 5 | 141 | 5.1 | CCCCN(CC(C)O)C(=O)[C@H]1CCC2=Cc3c(cnn3-c3ccc(F)cc3)C[C@@]21C (stereo partly drawn) [Compound 40, (4αR,5S)-N-butyl-1-(4-fluorophenyl)-N-(2-hydroxypropyl)-4α-methyl-1,4,4α,5,6,7-hexahydrocyclopenta[f]indazole-5-carboxamide]
13 | 5.6 | 4050 | 35.4 | 41 | > 5 | 2360 | 44.3 | CN(CC#N)C(=O)[C@H]1CCC2=Cc3c(cnn3-c3ccc(F)cc3)C[C@@]21C [Compound 41, (4αR,5S)-N-(cyanomethyl)-1-(4-fluorophenyl)-N,4α-dimethyl-1,4,4α,5,6,7-hexahydrocyclopenta[f]indazole-5-carboxamide]
14 | 29.5 | 419 | 35.3 | 64.8 | > 5 | 889 | 21.2 | C[C@]12Cc3cnn(-c4ccc(F)cc4)c3C=C1CC[C@@H]2C(=O)N1CCC(C(F)(F)F)CC1 [Compound 42, (4αR,5S)-1-(4-fluorophenyl)-4α-methyl-5-{[4-(trifluoromethyl)piperidin-1-yl]carbonyl}-1,4,4α,5,6,7-hexahydrocyclopenta[f]indazole]
15 | 1.5 | 5000 | 19.5 | 21 | > 5 | 385 | 49.8 | COC[C@H]1CCCN1C(=O)[C@H]1CCC2=Cc3c(cnn3-c3ccc(F)cc3)C[C@@]21C [Compound 43, (4αR,5S)-1-(4-fluorophenyl)-5-{[(2R)-2-(methoxymethyl)pyrrolidin-1-yl]carbonyl}-4α-methyl-1,4,4α,5,6,7-hexahydrocyclopenta[f]indazole]
